Measured values: US7166618B2, “Nitrosated and nitrosylated cyclooxygenase-2 inhibitors, compositions and methods of use” (NitroMed, Inc., priority 1999, dated 2007)
“Also recorded” adds a separate entry of the source.

Assays:
[1] = test system: carrageenan-induced rat paw edema; assay: Carrageenan-induced rat paw edema test; assay type: in vivo; conditions: rats dosed intragastrically, paw volume 3 hours after carrageenan
Procedure: The carrageenan-induced rat paw edema test was used to measure antiinflammatory activity. The paw edema test was performed according to the method of Winter et al, Proc. Soc. Exp. Biol. Med. 111: 544–547, 1962. Male Sprague-Dawley rats (200–250 g) were fasted for 24 hours with water ad libitum. The rats were dosed intragastrically with test compounds in a volume of 5 mL/kg. One hour after dosing the paw volume was measured. Then each rat received a subplantar injection of 50 μl of 1% suspension of carrageenan. Three hours later, the paw volume was measured and compared with the initial volume measured […]. The increase in paw volume is presented as the mean±SEM for 5 rats per group. Data were analyzed by performing an ANOVA test followed by a Student-Keuls post hoc test.

ovine COX-2 = target: T1, ovine COX-2 (Ovis aries, UniProt P79208); assay: biochemical; assay type: biochemical; conditions: for IC50: ovine COX-2, read-out: COX-2 IC50
T1 sequence (P79208 17-603): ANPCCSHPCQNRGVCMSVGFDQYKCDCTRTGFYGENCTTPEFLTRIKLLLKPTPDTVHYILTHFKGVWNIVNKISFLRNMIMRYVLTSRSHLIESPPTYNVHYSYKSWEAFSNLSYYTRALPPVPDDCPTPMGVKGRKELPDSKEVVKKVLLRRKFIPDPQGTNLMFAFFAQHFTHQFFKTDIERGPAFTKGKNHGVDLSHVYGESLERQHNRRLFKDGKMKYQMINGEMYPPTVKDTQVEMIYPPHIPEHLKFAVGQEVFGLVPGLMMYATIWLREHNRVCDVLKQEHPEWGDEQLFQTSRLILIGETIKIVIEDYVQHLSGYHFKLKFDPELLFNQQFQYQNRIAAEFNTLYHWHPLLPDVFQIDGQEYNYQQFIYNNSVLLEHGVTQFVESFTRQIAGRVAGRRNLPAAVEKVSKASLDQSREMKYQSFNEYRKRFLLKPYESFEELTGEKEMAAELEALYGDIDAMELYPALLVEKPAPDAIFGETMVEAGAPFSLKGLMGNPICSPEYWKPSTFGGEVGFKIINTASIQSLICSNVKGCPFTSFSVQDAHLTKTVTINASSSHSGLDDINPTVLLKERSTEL
Procedure: (§1) The ovine COX-1 and COX-2 activities and the measurement of the prostaglandin products synthesized were performed using the COX Inhibitor Screening Assay (Cayman Chemical, Ann Arbor, Mich., which also contained the Prostaglandin Screening EIA Kit, used for prostaglandin quantification). The test compounds were dissolved at 50 times the highest final reaction concentration in DMSO or any other suitable solvent as stock solutions. These stock solutions were then diluted in the same solvent. Eight glass test tubes (13×100 mm) were placed in a 37° C. water bath. To each test tube was added 950 μL of reaction buffer (0.1 M Tris-HCl, pH 8.0, containing 5 mM EDTA, and 2 mM phenol), 10 μL of 100 µM heme solution, and 10 μL (5 units) of either ovine COX-1 or COX-2 and the resulting mixture was incubated with the enzyme for 2 minutes. Twenty μL of the solvent was added to one tube (100% initial activity or solvent control) and 20 μL of each dilution of the test compound was added to one tube each. Each tube was vortexed immediately after the addition. The enzyme was incubated with the inhibitor for 3.5 minutes at 37° C. The enzymatic reaction was then initiated by the addition of 10 μL of freshly prepared 10 mM arachidonic acid (neutralized with KOH), vortexed and then incubated for 2 minutes at 37° C. The reaction was terminated by the addition of 50 μL of 1 M HCl, vortexed and placed at room temperature. One hundred microliters of a saturated stannous chloride solution (50 mg/mL of 0.1 M HCl) was added and the reaction mixture was allowed to stand at room temperature for at least 5 minutes.
(§2) The prostaglandins (PG) produced in the reactions were assayed, after a 2,000-fold dilution, using the Prostaglandin Screening EIA Kit (Cayman Chemical, Ann Arbor, Mich.). The assay-contains an antibody with broad specificity for all the prostaglandin families (PGF, PGE, PGD, and thromboxane B-type) synthesized in the COX-1/COX 2 reactions. The synthesized prostaglandin competes with a PG-tagged acetylcholine esterase tracer for binding to the PG antibody. Binding of synthesized PG lowers the calorimetric development of the Ellman's Reagent (computed as % B/B0). The actual amount of synthesized PG was interpolated from a standard curve using known amounts of supplied prostaglandin E2 (PGE2) (PGE2 concentration vs. % B/B0). The data generated were the mean±standard deviation of triplicate wells in the EIA for a single reaction at a given inhibitor concentration.

ovine COX-1 = target: T2, ovine COX-1 (Ovis aries, UniProt P05979); assay: biochemical; conditions: for IC50: ovine COX-1
T2 sequence (P05979 25-600): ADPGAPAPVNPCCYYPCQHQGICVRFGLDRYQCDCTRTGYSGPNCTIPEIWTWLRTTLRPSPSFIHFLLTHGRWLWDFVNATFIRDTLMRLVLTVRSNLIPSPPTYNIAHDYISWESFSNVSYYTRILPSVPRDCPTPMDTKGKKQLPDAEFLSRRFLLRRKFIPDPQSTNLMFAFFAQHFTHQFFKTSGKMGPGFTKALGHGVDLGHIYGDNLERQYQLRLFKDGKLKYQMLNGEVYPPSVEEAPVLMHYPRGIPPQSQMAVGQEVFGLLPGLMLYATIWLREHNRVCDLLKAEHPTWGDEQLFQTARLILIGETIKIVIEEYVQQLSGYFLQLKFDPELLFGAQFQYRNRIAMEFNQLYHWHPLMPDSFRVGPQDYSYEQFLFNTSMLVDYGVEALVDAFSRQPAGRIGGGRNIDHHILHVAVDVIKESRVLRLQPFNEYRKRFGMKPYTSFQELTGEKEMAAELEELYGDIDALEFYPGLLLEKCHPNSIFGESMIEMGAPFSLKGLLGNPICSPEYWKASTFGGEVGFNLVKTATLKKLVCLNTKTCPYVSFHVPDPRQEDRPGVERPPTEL
Procedure: as §1, §2

[2] = test system: rat aortic smooth muscle rings; assay: Relaxation of phenylephrine-contracted rat aortic smooth muscle rings; conditions: rings precontracted with 10 μM phenylephrine; for relaxation of aortic smooth muscle ring: 100 nM to 100 μM test compound; for relaxation compared with reference NO donor (ISDN or GSNO): comparator as in the value
Procedure: Male Sprague-Dawley rats (Charles River Laboratories (Wilmington, Mass.) were euthanized by intraperiton injection of a high dose of sodium pentobarbitone (80–100 mg/kg). The thoracic aorta was rapidly excised and immediately placed in a Petri dish containing warm (37° C.) oxygenated (95% O2 and 5% CO2) Kreb's buffer (composition per millimolar: NaCl (119); KCl (4.69); CaCl2.H2O (2.52); MgSO4.7H2O (0.57); NaHCO3 (25); NaH2PO4.H2O (1.01) and glucose (11.1). Under a stereoscopic dissecting microscope, the aorta was cleaned, freed from adhering fat and connective tissues. The tissue was cut into ring segments, each approximately 2–3 mm in length.
For experiments to measure relaxation of the tissue under various conditions, a stainless steel tissue holder and an U-shaped stainless steel wire were inserted into the lumen of the aortic ring. The tissue holder anchored the ring at the bottom of the organ bath whereas the end of the U-shaped steel wire was tied with fine silk thread so that it connected to the FT-202 transducer. The tissue holder and the steel wire along with the aortic ring were then suspended in a 5-mL double-jacketed temperature-controlled glass organ bath (Radnoti Glass Technology, Inc., Monrovia, Calif.) filled with fresh Kreb's buffer. A mixture of 95% O2 and 5% CO2 was bubbled through a porous sintered disc at the bottom of the bath. The rings were given an initial resting tension of 1.5 g and the preparation was allowed to equilibrate at the initial tension for about 90 minutes. During this equilibration period, the bath fluid was changed every 15 minutes and replaced with fresh prewarmed (37° C.) Kreb's buffer. The isometric tension of the aortic muscle at rest and its response to different stimuli were recorded on a Power Macintosh 6100 computer via a MacLab 8/S computer interface (CB Sciences, Inc, Milford, Mass.) after an initial amplification through a low-noise ETH-400 bioamplifier (CB Sciences, Inc, Milford, Mass.). Contractile responsiveness of the tissue strips was established with 10 μM phenylephrine and the strips were incubated with the drug for 20 minutes to establish a steady level of contraction. To test the relaxation effects, test compounds were added to the phenylephrine-precontracted strips in the tissue bath at cumulative concentrations of 0.1 μM to 0.1 mM. Concentration of test compounds was increased only after relaxation at the previous concentration had reached a plateau level.

| SMILES | paw volume (antiinflammatory activity) [1] | IC50 (ovine COX-2) | IC50 (ovine COX-1) | relaxation of aortic smooth muscle ring [2] | relaxation compared with reference NO donor (ISDN or GSNO) [2] | COX-2 inhibition potency compared with the parent compound (ovine COX-2; ovine enzymes, from Table 1) | relaxation compared with reference NO donor (ISDN or GSNO) ([2]; Citrate Salt) | inhibition at 100 µM (ovine COX-1; Ovine COX-1 (footnote a), at 100 μM) |
| --- | --- | --- | --- | --- | --- | --- | --- | --- |
| Cc1ccc(-c2cc(C(F)(F)F)nn2-c2ccc(S(N)(=O)=O)cc2)cc1 [Celecoxib, 4-(5-(4-methylphenyl)-3-(trifluoromethyl)-1H-pyrazol-1-yl)benzenesulfonamide] | reduced the paw volume | – | – | – | – | – | – | – |
| CS(=O)(=O)c1ccc(-c2nc3cc(CO)ccn3c2-c2ccc(F)cc2)cc1 [Example 5a, 1-(3-(4-Fluorophenyl)-7-(hydroxymethyl)(3a-hydroimidazolo(1,2-a)pyridin-2-yl))-4-(methylsulfonyl)benzene, reference compound] | – | 12 µM | > 300 µM | – | – | – | – | – |
| NS(=O)(=O)c1ccc(-n2nc(CO[N+](=O)[O-])cc2-c2ccc(Cl)cc2)cc1 [Example 1b, 4-(5-(4-Chlorophenyl)-3-((nitrooxy)methyl)-3-hydropyrazolyl) benzenesulfonamide] | – | 10 µM | 190 µM | induced the relaxation of the aortic ring | more potent than that obtained by the nitrate compound, isosorbide dinitrate | – | – | – |
| Cc1onc(-c2ccccc2)c1-c1ccc(S(=O)(=O)NC(=O)CCC(=O)OCCC2(SN=O)CCN(C)CC2)cc1.O=C(O)CC(O)(CC(=O)O)C(=O)O [Example 3g, 2-(1-Methyl-4-(nitrosothio)-4-piperidyl)ethyl 3-(N-((4-(5-methyl-3-phenylisoxazol-4-yl)phenyl)sulfonyl)carbamoyl)propanoate Citrate Salt] | – | 70 µM | > 300 µM | induced the relaxation of the aortic ring | – | not as potent as the parent non-nitrosylated compound | comparable to that obtained with GSNO | – |
| NS(=O)(=O)c1ccc(-c2c(-c3ccccc3)noc2CO)cc1 [Example 2a, 4-(5-(Hydroxymethyl)-3-phenylisoxazol-4-yl)benzenesulfonamide, reference compound] | reduced the paw volume | – | > 300 µM | did not relax the tissue; also recorded: did not relax the aortic ring | – | – | – | 0% |
